# Source: PMC5673977, “Transport Deficiency Is the Molecular Basis of Candida albicans Resistance to Antifungal Oligopeptides” (Frontiers in Microbiology, 2017)
# Where a SMILES comes first, the peptide text is derived from it. [ ]: non-standard residue; d: D form. Nva = CCC[C@H](N)C(=O)O
# Experiments:
# [1] = system: C. albicans isolates NF1-3 and LNF1-3; test: Initial peptide uptake rate by isolates resistant to F2/F3; format: cell-based, Candida albicans; conditions: all six isolates NF1-3, LNF1-3; Figure 4
# Protocol: (§1) Yeast cells grown exponentially in the YNB-SG medium were harvested by centrifugation (3000 ×g, 5 min), washed with 50 mM potassium phosphate buffer (pH 5.0 or 6.5), and suspended in the same buffer containing 1% glucose, to a final cell density corresponding to A660 ≅ 1.0. The cell suspension was incubated at 30°C. After 10 min, an oligopeptide solution was added, to give a final concentration of 100 μM. At that moment and at 5 min intervals thereafter, 2 mL samples of the cell suspension were withdrawn, immediately filtered through the Whatman GF/A filters and the filtrates were used to determine the residual peptide concentration. Then, the 1 mL portions of the filtrates were taken and combined with 1.25 mL aliquots of a solution containing 4% Na2B4O7 × 10 H2O and 0.8 mg mL^-1 of 2,4,6-trinitrobenzenesulfonate. The reaction was carried out at 37°C for 30 min. The A420 values were measured and the peptide concentration was read from the appropriate standard curve. Data were plotted as nanomoles of an oligopeptide, taken up by 1 mg (dry weight) of cells versus time. The initial uptake velocities were determined from the slopes of the linear part of the curves, in the 0- to 10-min region.
# It is therefore clear that the diminished sensitivity of all six isolates to F2 and F3 was due to the reduced uptake, most likely by permease(s) of the PTR system.
# C. albicans ptr2Δ ptr22Δ = test: Initial peptide uptake rate; format: cell-based, Candida albicans; conditions: 50 mM potassium phosphate buffer (pH 5.0 or 6.5) + 1% glucose, 30°C, 100 μM peptide, TNBS A420, slope 0- to 10-min
# Protocol: as §1
# C. albicans opt1–opt5Δ = test: Initial peptide uptake rate; format: cell-based, Candida albicans; conditions: 50 mM potassium phosphate buffer (pH 5.0 or 6.5) + 1% glucose, 30°C, 100 μM peptide, TNBS A420, slope 0- to 10-min
# Protocol: as §1
# C. albicans opt2Δ opt3Δ = test: Initial peptide uptake rate; format: cell-based, Candida albicans; conditions: 50 mM potassium phosphate buffer (pH 5.0 or 6.5) + 1% glucose, 30°C, 100 μM peptide, TNBS A420, slope 0- to 10-min
# Protocol: as §1
# C. albicans opt5Δ = test: Initial peptide uptake rate; format: cell-based, Candida albicans; conditions: 50 mM potassium phosphate buffer (pH 5.0 or 6.5) + 1% glucose, 30°C, 100 μM peptide, TNBS A420, slope 0- to 10-min
# Protocol: as §1
# C. albicans opt4Δ = test: Initial peptide uptake rate; format: cell-based, Candida albicans; conditions: 50 mM potassium phosphate buffer (pH 5.0 or 6.5) + 1% glucose, 30°C, 100 μM peptide, TNBS A420, slope 0- to 10-min
# Protocol: as §1
# C. albicans SC5314 = test: Initial peptide uptake rate; format: cell-based, Candida albicans; conditions: SC 5314; cells grown in YNB-SG; 50 mM potassium phosphate buffer (pH 5.0 or 6.5) + 1% glucose, 30°C, 100 μM peptide, residual peptide by TNBS A420, slope 0- to 10-min
# Protocol: as §1
# [2] = system: C. albicans opt1–opt5Δ ptr2Δ ptr22Δ; test: Initial peptide uptake rate; format: cell-based, Candida albicans; conditions: 50 mM potassium phosphate buffer (pH 5.0 or 6.5) + 1% glucose, 30°C, 100 μM peptide, TNBS A420, slope 0- to 10-min
# Protocol: as §1
# C. albicans opt1Δ = test: Initial peptide uptake rate; format: cell-based, Candida albicans; conditions: 50 mM potassium phosphate buffer (pH 5.0 or 6.5) + 1% glucose, 30°C, 100 μM peptide, TNBS A420, slope 0- to 10-min
# Protocol: as §1
# [3] = system: peptidases present in cytoplasmic extracts obtained from NF1, NF2, NF3, LNF1, LNF2, LNF3, and SC 5314 cells; test: Peptide cleavage rate in cell-free extract (Cd-ninhydrin); format: in vitro ADME, Candida albicans; conditions: pH 6.5, 30°C
# Protocol: Yeast cells from the overnight culture in YNB-SG were harvested by centrifugation and washed with cold 25 mM potassium phosphate buffer (pH 6.5). Cells were then suspended in a minimal amount of the buffer and disrupted with the French press. The resulting suspension was centrifuged (35,000 ×g, 4°C, 45 min), and the supernatant was used as a cell-free extract for the determination of peptide cleavage rates.
# The incubation mixtures, consisting of 10 mL of a 200 mM peptide solution in 50 mM potassium phosphate buffer (pH 6.5) and 2 mL of an appropriately diluted crude extract (final protein concentration, 0.1–0.5 mg mL^-1), were incubated at 30°C. At 5 min intervals, 2 mL aliquots were withdrawn and heated at 100°C for 3 min. The resulting suspensions were centrifuged to remove the protein precipitates and the concentration of free amino acids in the supernatant was determined by the Cd-ninhydrin procedure ([Doi et al., 1981]).
SMILES,Initial uptake rate relative to wild type SC5314 cells [1],Uptake rate ± SD (C. albicans ptr2Δ ptr22Δ),Uptake rate ± SD (C. albicans opt1–opt5Δ),Uptake rate ± SD (C. albicans opt2Δ opt3Δ),Uptake rate ± SD (C. albicans opt5Δ),Uptake rate ± SD (C. albicans opt4Δ),Uptake rate ± SD (C. albicans SC5314),Uptake rate ± SD [2],Uptake rate ± SD (C. albicans opt1Δ),"Velocity of proteolytic cleavage relative to F6, F7, and F11 [3]"
"CCC[C@H](N)C(=O)N[C@@H](Cc1ccccc1)C(=O)N[C@@H](CCSC)C(=O)N[C@@H](CC(=O)O)C(=O)N1CCC[C@H]1C(=O)O [Peptide F2, Nva-FMDP] (H-[Nva]FMDP-OH)",remarkably lower,<0.1 nmol min^-1 (mg dry weight)^-1,4.05 ± 0.18 nmol min^-1 (mg dry weight)^-1,4.80 ± 0.15 nmol min^-1 (mg dry weight)^-1,4.78 ± 0.11 nmol min^-1 (mg dry weight)^-1,4.86 ± 0.14 nmol min^-1 (mg dry weight)^-1,4.83 ± 0.11 nmol min^-1 (mg dry weight)^-1,<0.1 nmol min^-1 (mg dry weight)^-1,4.75 ± 0.09 nmol min^-1 (mg dry weight)^-1,two to three times higher
"CCC[C@H](NC(=O)[C@@H](N)CCCCN)C(=O)N[C@@H](Cc1ccccc1)C(=O)N[C@@H](CCSC)C(=O)N[C@@H](CC(=O)O)C(=O)N1CCC[C@H]1C(=O)O [Peptide F3, Lys-Nva-FMDP] (H-K[Nva]FMDP-OH)",lower,0.11 ± 0.04 nmol min^-1 (mg dry weight)^-1,2.98 ± 0.18 nmol min^-1 (mg dry weight)^-1,3.23 ± 0.19 nmol min^-1 (mg dry weight)^-1,4.19 ± 0.16 nmol min^-1 (mg dry weight)^-1,4.12 ± 0.15 nmol min^-1 (mg dry weight)^-1,4.32 ± 0.14 nmol min^-1 (mg dry weight)^-1,<0.1 nmol min^-1 (mg dry weight)^-1,4.08 ± 0.14 nmol min^-1 (mg dry weight)^-1,two to three times higher
